Assay results as given in ChEMBL document CHEMBL4507256 (2021).

Tests used:
[1] = molecular target: AP2-associated protein kinase 1 (Homo sapiens) (UniProt Q2M2I8); conditions: Compound concentration 1000.0 nM
[2] = molecular target: Serine/threonine-protein kinase MAK (Homo sapiens) (UniProt P20794); conditions: Compound concentration 1000.0 nM
[3] = molecular target: Ephrin type-B receptor 3 (Homo sapiens) (UniProt P54753); conditions: Compound concentration 1000.0 nM
[4] = tested on: Receptor-type tyrosine-protein kinase FLT3 (Homo sapiens), P36888 [R834Q]; conditions: Compound concentration 1000.0 nM
[5] = molecular target: Citron Rho-interacting kinase (Homo sapiens) (UniProt O14578); conditions: Compound concentration 1000.0 nM
[6] = molecular target: Protein kinase C delta type (Homo sapiens) (UniProt Q05655); conditions: Compound concentration 1000.0 nM
[7] = molecular target: MAP kinase-activated protein kinase 5 (Homo sapiens) (UniProt Q8IW41); conditions: Compound concentration 1000.0 nM
[8] = molecular target: Myosin-IIIa (Homo sapiens) (UniProt Q8NEV4); conditions: Compound concentration 1000.0 nM
[9] = molecular target: Mitogen-activated protein kinase kinase kinase 4 (Homo sapiens) (UniProt Q9Y6R4); conditions: Compound concentration 1000.0 nM
[10] = molecular target: Cyclin-dependent kinase 11A (Homo sapiens) (UniProt Q9UQ88); conditions: Compound concentration 1000.0 nM
[11] = molecular target: Calcium/calmodulin-dependent protein kinase type 1D (Homo sapiens) (UniProt Q8IU85); conditions: Compound concentration 1000.0 nM
[12] = molecular target: Alpha-2B adrenergic receptor (Homo sapiens) (UniProt P18089); conditions: Compound concentration 10.0 uM
[13] = molecular target: Tyrosine-protein kinase ABL1 (Homo sapiens) (UniProt P00519); conditions: Compound concentration 1000.0 nM
Tyrosine-protein kinase ABL1 (Homo sapiens), sequence (P00519 whole entry): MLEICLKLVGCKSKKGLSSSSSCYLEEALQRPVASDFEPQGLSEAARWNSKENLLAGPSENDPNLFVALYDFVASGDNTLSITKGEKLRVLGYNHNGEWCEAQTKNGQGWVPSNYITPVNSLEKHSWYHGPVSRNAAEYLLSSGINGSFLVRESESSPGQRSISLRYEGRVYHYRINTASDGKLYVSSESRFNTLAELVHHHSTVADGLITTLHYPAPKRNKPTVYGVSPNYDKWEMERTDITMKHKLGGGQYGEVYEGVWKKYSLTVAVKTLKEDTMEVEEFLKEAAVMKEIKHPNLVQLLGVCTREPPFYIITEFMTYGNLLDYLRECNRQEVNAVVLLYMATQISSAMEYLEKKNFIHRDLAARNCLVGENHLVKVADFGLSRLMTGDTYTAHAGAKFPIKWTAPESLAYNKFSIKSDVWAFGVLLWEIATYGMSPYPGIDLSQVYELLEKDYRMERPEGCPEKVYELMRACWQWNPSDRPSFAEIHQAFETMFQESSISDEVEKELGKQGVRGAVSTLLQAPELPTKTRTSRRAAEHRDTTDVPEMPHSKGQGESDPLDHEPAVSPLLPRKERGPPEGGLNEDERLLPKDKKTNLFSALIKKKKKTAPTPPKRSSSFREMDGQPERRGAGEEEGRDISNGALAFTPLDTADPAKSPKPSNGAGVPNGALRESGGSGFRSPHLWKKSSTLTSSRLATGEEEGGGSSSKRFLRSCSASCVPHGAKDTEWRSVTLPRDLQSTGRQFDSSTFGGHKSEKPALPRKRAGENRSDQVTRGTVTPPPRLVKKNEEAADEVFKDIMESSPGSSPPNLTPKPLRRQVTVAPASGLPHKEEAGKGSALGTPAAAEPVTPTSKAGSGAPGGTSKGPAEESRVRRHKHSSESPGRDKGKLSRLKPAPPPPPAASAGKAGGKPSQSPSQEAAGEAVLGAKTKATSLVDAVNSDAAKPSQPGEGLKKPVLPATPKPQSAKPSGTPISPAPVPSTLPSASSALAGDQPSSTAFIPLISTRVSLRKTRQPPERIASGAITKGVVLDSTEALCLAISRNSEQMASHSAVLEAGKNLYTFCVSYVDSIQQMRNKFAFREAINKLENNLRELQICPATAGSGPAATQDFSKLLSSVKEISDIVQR

[14] = molecular target: Fibroblast growth factor receptor 4 (Homo sapiens) (UniProt P22455); conditions: Compound concentration 1000.0 nM
Fibroblast growth factor receptor 4 (Homo sapiens), sequence (P22455 22-802 limits assumed): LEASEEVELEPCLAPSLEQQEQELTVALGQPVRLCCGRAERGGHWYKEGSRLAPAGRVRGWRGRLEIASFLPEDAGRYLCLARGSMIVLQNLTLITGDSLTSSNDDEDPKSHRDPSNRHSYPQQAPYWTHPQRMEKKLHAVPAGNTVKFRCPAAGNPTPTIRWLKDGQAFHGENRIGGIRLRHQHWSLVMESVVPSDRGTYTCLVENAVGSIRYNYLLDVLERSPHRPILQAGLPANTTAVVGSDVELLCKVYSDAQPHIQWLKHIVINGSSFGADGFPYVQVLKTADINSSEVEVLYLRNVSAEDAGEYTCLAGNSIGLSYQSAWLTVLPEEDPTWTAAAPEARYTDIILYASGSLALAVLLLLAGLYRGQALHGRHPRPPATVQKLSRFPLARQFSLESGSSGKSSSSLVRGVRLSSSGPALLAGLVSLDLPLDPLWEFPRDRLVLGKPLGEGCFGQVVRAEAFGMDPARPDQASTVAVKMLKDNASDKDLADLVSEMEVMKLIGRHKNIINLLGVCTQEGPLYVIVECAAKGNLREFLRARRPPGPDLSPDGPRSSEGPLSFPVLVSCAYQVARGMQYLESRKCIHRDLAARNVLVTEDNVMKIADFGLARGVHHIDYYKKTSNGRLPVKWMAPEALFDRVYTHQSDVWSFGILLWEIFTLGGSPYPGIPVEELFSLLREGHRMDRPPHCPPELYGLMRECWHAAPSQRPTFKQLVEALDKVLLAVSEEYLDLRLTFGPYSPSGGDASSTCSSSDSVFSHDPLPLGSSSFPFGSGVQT

[15] = molecular target: Serine/threonine-protein kinase DCLK1 (Homo sapiens) (UniProt O15075); conditions: Compound concentration 1000.0 nM
[16] = molecular target: Bone morphogenetic protein receptor type-2 (Homo sapiens) (UniProt Q13873); conditions: Compound concentration 1000.0 nM
[17] = molecular target: Tyrosine-protein kinase HCK (Homo sapiens) (UniProt P08631); conditions: Compound concentration 1000.0 nM
[18] = molecular target: Serine/threonine-protein kinase 10 (Homo sapiens) (UniProt O94804); conditions: Compound concentration 1000.0 nM
[19] = molecular target: Histamine H1 receptor (Homo sapiens) (UniProt P35367); conditions: Compound concentration 10.0 uM
Histamine H1 receptor (Homo sapiens), sequence (P35367 whole entry): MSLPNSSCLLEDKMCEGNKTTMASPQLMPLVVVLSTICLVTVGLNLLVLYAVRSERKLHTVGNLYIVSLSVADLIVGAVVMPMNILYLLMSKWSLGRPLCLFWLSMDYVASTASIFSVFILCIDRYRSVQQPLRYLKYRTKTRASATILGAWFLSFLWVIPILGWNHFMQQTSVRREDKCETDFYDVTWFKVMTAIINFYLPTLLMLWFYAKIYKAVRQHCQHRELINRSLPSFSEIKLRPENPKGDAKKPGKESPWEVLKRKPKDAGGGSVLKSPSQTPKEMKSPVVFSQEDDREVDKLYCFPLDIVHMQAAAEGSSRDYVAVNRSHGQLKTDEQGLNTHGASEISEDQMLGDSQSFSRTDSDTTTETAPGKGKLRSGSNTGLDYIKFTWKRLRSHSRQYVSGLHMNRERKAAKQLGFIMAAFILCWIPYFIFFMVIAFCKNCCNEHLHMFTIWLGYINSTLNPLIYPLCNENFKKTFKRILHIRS

[20] = molecular target: T1, D(4) dopamine receptor (Homo sapiens) (UniProt P21917); conditions: Compound concentration 10.0 uM
T1 sequence (whole entry): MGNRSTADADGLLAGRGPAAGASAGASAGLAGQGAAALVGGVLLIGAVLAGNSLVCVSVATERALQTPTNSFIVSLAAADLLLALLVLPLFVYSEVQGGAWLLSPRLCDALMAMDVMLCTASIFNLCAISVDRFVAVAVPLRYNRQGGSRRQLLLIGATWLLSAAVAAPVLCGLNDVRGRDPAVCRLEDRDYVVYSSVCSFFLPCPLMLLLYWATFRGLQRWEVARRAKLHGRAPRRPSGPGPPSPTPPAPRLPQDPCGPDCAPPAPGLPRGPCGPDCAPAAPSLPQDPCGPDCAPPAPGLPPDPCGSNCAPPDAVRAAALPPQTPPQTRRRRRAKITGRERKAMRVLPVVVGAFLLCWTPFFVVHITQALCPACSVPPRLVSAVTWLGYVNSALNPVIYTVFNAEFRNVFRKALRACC

[21] = molecular target: Leukocyte tyrosine kinase receptor (Homo sapiens) (UniProt P29376); conditions: Compound concentration 1000.0 nM
[22] = tested on: ALK tyrosine kinase receptor (Homo sapiens), Q9UM73 [C1156Y]; conditions: Compound concentration 1000.0 nM
[23] = molecular target: Serine/threonine-protein kinase N1 (Homo sapiens) (UniProt Q16512); conditions: Compound concentration 1000.0 nM
[24] = molecular target: Tyrosine-protein kinase SYK (Homo sapiens) (UniProt P43405); conditions: Compound concentration 1000.0 nM
[25] = molecular target: Aurora kinase B (Homo sapiens) (UniProt Q96GD4); conditions: Compound concentration 1000.0 nM
[26] = molecular target: Inhibitor of nuclear factor kappa-B kinase subunit beta (Homo sapiens) (UniProt O14920); conditions: Compound concentration 1000.0 nM
[27] = molecular target: Serine/threonine-protein kinase D2 (Homo sapiens) (UniProt Q9BZL6); conditions: Compound concentration 1000.0 nM
[28] = molecular target: Hormonally up-regulated neu tumor-associated kinase (Homo sapiens) (UniProt P57058); conditions: Compound concentration 1000.0 nM
[29] = tested on: Mast/stem cell growth factor receptor Kit (Homo sapiens), P10721 [L576P]; conditions: Compound concentration 1000.0 nM
[30] = tested on: Epidermal growth factor receptor (Homo sapiens), P00533 [UNDEFINED MUTATION]; conditions: Compound concentration 1000.0 nM
[31] = molecular target: Mitogen-activated protein kinase kinase kinase 11 (Homo sapiens) (UniProt Q16584); conditions: Compound concentration 1000.0 nM
Mitogen-activated protein kinase kinase kinase 11 (Homo sapiens), sequence (Q16584 whole entry, looked up): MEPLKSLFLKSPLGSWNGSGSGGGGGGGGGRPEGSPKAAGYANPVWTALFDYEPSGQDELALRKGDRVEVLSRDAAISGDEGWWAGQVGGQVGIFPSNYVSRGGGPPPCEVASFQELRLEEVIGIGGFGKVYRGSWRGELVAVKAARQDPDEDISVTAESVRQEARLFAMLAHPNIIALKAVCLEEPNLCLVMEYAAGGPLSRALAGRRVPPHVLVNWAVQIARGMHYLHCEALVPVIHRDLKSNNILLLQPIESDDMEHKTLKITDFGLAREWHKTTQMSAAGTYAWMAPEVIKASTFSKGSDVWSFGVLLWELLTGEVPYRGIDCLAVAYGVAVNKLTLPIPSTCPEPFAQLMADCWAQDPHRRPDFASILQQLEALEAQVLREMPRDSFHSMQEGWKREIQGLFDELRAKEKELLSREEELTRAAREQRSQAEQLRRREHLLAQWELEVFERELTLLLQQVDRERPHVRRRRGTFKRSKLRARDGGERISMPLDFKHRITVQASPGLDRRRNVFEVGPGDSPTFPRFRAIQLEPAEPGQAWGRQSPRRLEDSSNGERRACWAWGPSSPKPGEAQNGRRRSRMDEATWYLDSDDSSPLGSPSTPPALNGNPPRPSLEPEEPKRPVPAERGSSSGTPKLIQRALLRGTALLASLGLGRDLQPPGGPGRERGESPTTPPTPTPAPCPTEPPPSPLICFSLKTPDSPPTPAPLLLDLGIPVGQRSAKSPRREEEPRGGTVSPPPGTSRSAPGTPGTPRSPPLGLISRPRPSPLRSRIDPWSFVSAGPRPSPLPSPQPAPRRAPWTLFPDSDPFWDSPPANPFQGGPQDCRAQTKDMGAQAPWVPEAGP

[32] = molecular target: Tyrosine-protein kinase ABL2 (Homo sapiens) (UniProt P42684); conditions: Compound concentration 1000.0 nM
Tyrosine-protein kinase ABL2 (Homo sapiens), sequence (P42684 whole entry, canonical isoform): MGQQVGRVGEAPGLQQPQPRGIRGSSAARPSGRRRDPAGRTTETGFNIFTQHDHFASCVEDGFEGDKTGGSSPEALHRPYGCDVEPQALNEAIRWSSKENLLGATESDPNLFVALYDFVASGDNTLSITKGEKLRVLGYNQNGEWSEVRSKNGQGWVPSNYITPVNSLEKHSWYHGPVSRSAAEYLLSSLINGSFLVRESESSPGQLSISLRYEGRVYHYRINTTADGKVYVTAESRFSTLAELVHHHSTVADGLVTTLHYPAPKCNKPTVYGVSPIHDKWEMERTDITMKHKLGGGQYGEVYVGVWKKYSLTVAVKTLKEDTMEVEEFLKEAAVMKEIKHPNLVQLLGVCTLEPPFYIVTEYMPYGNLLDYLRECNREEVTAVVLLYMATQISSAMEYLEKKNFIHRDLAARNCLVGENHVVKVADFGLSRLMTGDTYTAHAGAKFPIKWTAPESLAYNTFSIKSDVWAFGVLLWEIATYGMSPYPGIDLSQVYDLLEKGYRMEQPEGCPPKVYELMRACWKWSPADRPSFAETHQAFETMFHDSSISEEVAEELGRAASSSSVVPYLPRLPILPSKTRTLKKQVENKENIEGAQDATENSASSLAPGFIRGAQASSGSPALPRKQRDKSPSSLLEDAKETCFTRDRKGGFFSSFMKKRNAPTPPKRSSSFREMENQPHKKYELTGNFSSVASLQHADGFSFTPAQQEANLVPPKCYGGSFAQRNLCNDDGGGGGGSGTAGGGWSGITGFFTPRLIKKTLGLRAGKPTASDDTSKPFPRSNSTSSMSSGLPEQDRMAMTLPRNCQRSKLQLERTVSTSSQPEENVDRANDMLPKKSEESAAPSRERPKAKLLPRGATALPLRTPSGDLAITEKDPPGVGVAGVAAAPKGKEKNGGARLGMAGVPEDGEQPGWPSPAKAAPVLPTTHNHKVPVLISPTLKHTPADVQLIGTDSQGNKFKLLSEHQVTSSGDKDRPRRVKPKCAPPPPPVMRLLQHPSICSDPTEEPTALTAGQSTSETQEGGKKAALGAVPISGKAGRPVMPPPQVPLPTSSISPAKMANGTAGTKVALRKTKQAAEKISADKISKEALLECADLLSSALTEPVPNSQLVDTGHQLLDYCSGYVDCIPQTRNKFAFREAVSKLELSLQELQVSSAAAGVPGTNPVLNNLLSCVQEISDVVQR

[33] = tested on: Phosphatidylinositol 4,5-bisphosphate 3-kinase catalytic subunit alpha isoform (Homo sapiens), P42336 [E545A]; conditions: Compound concentration 1000.0 nM
[34] = molecular target: Tyrosine-protein kinase ITK/TSK (Homo sapiens) (UniProt Q08881); conditions: Compound concentration 1000.0 nM
[35] = tested on: Tyrosine-protein kinase ABL1 (Homo sapiens), P00519 [F317L]; conditions: Compound concentration 1000.0 nM
Tyrosine-protein kinase ABL1 (Homo sapiens), P00519 [F317L], sequence (P00519 whole entry F317L): as the sequence (P00519 whole entry) above, with F317L counted along it

[36] = molecular target: Dual specificity mitogen-activated protein kinase kinase 2 (Homo sapiens) (UniProt P36507); conditions: Compound concentration 1000.0 nM
[37] = molecular target: Phosphatidylinositol 4,5-bisphosphate 3-kinase catalytic subunit beta isoform (Homo sapiens) (UniProt P42338); conditions: Compound concentration 1000.0 nM
[38] = molecular target: Leucine-rich repeat serine/threonine-protein kinase 2 (Homo sapiens) (UniProt Q5S007); conditions: Compound concentration 1000.0 nM
[39] = molecular target: Tyrosine-protein kinase ABL1 (Homo sapiens) (UniProt P00519); conditions: Compound concentration 1000.0 nM; remark: listed apart in the source

Serine/threonine-protein kinase MAK (Homo sapiens), sequence (P20794 whole entry): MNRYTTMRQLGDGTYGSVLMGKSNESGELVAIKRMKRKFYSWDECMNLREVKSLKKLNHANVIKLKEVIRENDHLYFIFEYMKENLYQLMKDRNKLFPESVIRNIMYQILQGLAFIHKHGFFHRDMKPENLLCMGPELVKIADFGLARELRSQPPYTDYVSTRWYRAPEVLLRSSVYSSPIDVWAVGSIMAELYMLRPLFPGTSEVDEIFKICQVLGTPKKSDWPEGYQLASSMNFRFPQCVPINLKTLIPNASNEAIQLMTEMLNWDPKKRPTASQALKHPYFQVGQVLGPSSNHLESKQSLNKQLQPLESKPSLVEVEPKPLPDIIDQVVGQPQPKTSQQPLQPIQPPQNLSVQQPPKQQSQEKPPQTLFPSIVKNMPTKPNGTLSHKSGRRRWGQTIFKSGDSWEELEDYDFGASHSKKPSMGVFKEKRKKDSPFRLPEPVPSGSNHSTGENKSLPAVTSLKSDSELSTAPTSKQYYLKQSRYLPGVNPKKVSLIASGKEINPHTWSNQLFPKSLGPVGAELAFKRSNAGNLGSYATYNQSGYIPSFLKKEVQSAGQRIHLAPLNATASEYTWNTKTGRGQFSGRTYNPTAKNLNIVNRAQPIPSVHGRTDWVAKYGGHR

CCC(=N\O)/C(C)=C/c1ccc(F)c(C)c1 [A-226]
inactive: residual activity [1] 98% | residual activity [2] 100% | residual activity [3] 96% | residual activity [4] 100% | residual activity [5] 70% | residual activity [6] 98% | residual activity [7] 100% | residual activity [8] 94% | residual activity [9] 72% | residual activity [10] 69% | residual activity [11] 92% | inhibition [12] 33.1% | residual activity [13] 100% | residual activity [14] 83% | residual activity [15] 100% | residual activity [16] 100% | residual activity [17] 80% | residual activity [18] 73% | inhibition [19] 15.2% | inhibition [20] 18.6% | residual activity [21] 61% | residual activity [22] 100% | residual activity [23] 100% | residual activity [24] 76% | residual activity [25] 100% | residual activity [26] 100% | residual activity [27] 100% | residual activity [28] 91% | residual activity [29] 94% | residual activity [30] 69% | residual activity [31] 79% | residual activity [32] 92% | residual activity [33] 100% | residual activity [34] 91% | residual activity [35] 100% | residual activity [36] 92% | residual activity [37] 100% | residual activity [38] 100% | residual activity [39] 100%

CCC(=N\O)/C(C)=C/c1ccc(F)cc1 [A-079]
inactive: residual activity [1] 89% | residual activity [2] 100% | residual activity [3] 75% | residual activity [4] 80% | residual activity [5] 70% | residual activity [6] 100% | residual activity [7] 91% | residual activity [8] 100% | residual activity [9] 99% | residual activity [10] 94% | residual activity [11] 100% | inhibition [12] 15.1% | residual activity [13] 83% | residual activity [14] 96% | residual activity [15] 93% | residual activity [16] 81% | residual activity [17] 100% | residual activity [18] 76% | inhibition [19] 9.24% | inhibition [20] 19.5% | residual activity [21] 87% | residual activity [22] 77% | residual activity [23] 100% | residual activity [24] 100% | residual activity [25] 68% | residual activity [26] 83% | residual activity [27] 99% | residual activity [28] 76% | residual activity [29] 100% | residual activity [30] 61% | residual activity [31] 88% | residual activity [32] 82% | residual activity [33] 76% | residual activity [34] 90% | residual activity [35] 81% | residual activity [36] 100% | residual activity [37] 99% | residual activity [38] 90% | residual activity [39] 66%
